The values below come from a melting point compilation (Tetko et al.; mined from patent text by program, amines drawn as free bases though some values may be those of a salt).

Molecules are shown by their SMILES.

As usually defined, the melting point is the temperature, or range, at which the solid turns liquid. `O=C1CCC(N2Cc3c(OCc4ccc(CN5CCN(S(=O)(=O)c6ccccc6)CC5)cc4)cccc3C2=O)C(=O)N1` (stereo not drawn) had a melting point of 220 to 222 °C.

`CN(CCc1ccc([N+](=O)[O-])cc1)Cc1nc2ccc([N+](=O)[O-])cc2o1`: the melting point fell in the range of 69 to 69.5 °C. Take `COC(=O)Cc1ccc(C(=O)c2ccc(OC)cc2)n1C`: the melting point was 104 to 105 °C.

In turn, `CN(c1ccccc1)c1ccc(-c2nc(C#N)c(C#N)nc2C#N)cc1` displayed a melting point of 187 °C. Compound `O=C1CCCNc2ccc(Cl)cc21` came in with a melting point of 103 to 104 °C. The compound `CCOC(=O)/C=C(C)/C(F)=C/C=C(C)/C=C/c1c(C)cc(OC)c(C)c1Cl` came in with a melting point of 115 to 117 °C. As to `CN1C(=O)C(c2cccc(Br)c2)(c2cnn(CC(F)(F)F)c2)N=C1N` (stereo not drawn), the melting point lay within 80 to 82 °C. In the case of `COc1cc(OC)c(F)c(N2Cc3cnc(S(C)=O)nc3N(C3CC3)C2=O)c1F` (stereo not drawn), the melting point lay within 198 to 200 °C. For `c1ccc([C@H]2OC2(c2ccccc2)c2ccccc2)cc1` the value was 91 to 92 °C; for `Clc1ccc(-c2cc(C3CCN(Cc4ccc5ccccc5c4)CC3)n[nH]2)cc1`, 180 to 181 °C; for `CSc1ncnn1C[C@]1(c2ccc(F)c(F)c2)O[C@@H]1c1ccccc1Cl` (relative stereo), 79 to 81 °C. For `COc1ccccc1-c1cc(F)cc2c1NC(CN)CO2` (stereo not drawn) the value was 84 °C. As to `CCOC(=O)C(C(=O)OCC)c1ccc(Br)cc1[N+](=O)[O-]`, the melting point was in the range of 54 to 55 °C. Turning to `CC(C)OC(=O)COc1ccc(CCNS(=O)(=O)c2ccccc2)cc1`, the melting point was 56 to 57 °C. The result for `O=C(O)c1cccc(OC(F)(F)C(F)(F)F)c1` reads 131 to 134 °C; that for `S=C(NN=Cc1cccc(-c2ccccc2Br)n1)NN1CCCC1`, 157 to 159 °C. As for `Cc1ccc(C(=O)C#CCO)cc1`, the melting point is 74 °C. As for `CCC(C)(C)c1ccc(OCCCC(=O)Nc2ccc(Cl)c(NC(=O)C(C(=O)c3ccc(OC)cc3)N3C(=O)NC(=C(C)C)C3=O)c2)c(C(C)(C)CC)c1` (stereo not drawn), the melting point lay within 140 to 141 °C. Regarding `COc1cc(OC)c2c(=O)[nH]c(-c3ccccn3)nc2c1`, the melting point was in the range of 215 to 217 °C.

On to `COc1cccc(CC2(c3ccc4[nH]ccc4c3)CCNC2)c1` (stereo not drawn), for which the melting point is 170 to 171 °C.

Consider `C=CCC1(C(=O)OC)C(=O)Nc2ccccc2CC1c1ccc(OC)cc1` (stereo not drawn), for which the melting point lay within 175 to 176 °C. Compound `O=S(=O)(NN1CCCCC1)c1ccc(S)cc1` showed a melting point of 93 °C. As to `O=C(c1ccsc1)c1cccc2ccccc12`, the melting point came to 50 °C. For `COC(=O)C1CCC2C3CCC4CC(O)C(OC)CC4(C)C3C(N)CC12C` (stereo not drawn) the value was 177 to 184 °C. As for `COC(=O)c1cc(C23CC4CC(CC(C4)C2)C3)c(OC)cc1F`, the melting point lay within 82 to 88 °C. For `CCOC(=O)CSc1nccc(NCc2ccc(Cl)cc2)n1` the value was 175 to 178 °C; for `CCOC(=O)C1=C(C)NN=C(c2ccco2)C1c1ccccc1` (stereo not drawn), 158 °C.

`CC(=O)OC1CSC(Oc2cc(C)c(Cl)cc2-c2ccno2)C(OC(C)=O)C1OC(C)=O` (stereo not drawn) came in with a melting point of 203 °C. As to `CNC(=O)c1ccc(F)c(F)c1`, the melting point is 143 to 145 °C. The result for `COc1ccc(C(=O)Nc2c(Cl)cncc2Cl)c2c(CC(=O)O)coc12` reads 270 to 278 °C. In turn, `CCCc1c(C(=O)N2CCOCC2)c2ccc(C(N)=O)cc2n1Cc1ccccc1Cl` showed a melting point of 229 to 230 °C. `CC(C)(C)c1nc2cc(N3CCNCC3)c([N+](=O)[O-])cc2s1` registered a melting point of 144 to 146 °C. In turn, `CCCCN(C)C(=O)CCCCCCCCCCSC1Cc2cc(O)ccc2C2CCC3(C)C(O)CCC3C12` (stereo not drawn) had a melting point of 71 to 75 °C.

Compound `CCCN(CCC)C(=O)/C=C/CSc1nc(N)cc(Cl)n1` returned a melting point of 139 to 142 °C.

On to `CCCC1(C2CCCC2)Cc2cc(OCCCC(=O)O)c(Cl)c(Cl)c2C1=O` (stereo not drawn), for which the melting point fell in the range of 140 to 141 °C.

As to `CN(C)CCCOc1c(Cl)cc(-c2nnc(CSCCOc3ccccc3)o2)cc1Cl`, the melting point lay in the range of 95 to 99 °C. `NN(Cc1ccc(Cl)cc1)c1ccc(OCc2ccc3ccccc3n2)cc1` showed a melting point of 130 °C. Take `CCCCOCCOc1ccc(-c2ccc3c(c2)C=C(C(=O)Nc2ccc(C/C(=N\O)c4nccn4CCC)cc2)CCN3CC(C)C)cc1`: the melting point was in the range of 166 to 168 °C. The result for `CC(C)CCCOc1c(-c2ccc(S(C)(=O)=O)cc2)cnn(-c2ccc(F)c(F)c2)c1=O` reads 98 to 99 °C; that for `NS(=O)(=O)c1ccc(-c2ccccc2-c2ccc(F)c(Cl)c2)cc1`, 192 to 193 °C; that for `COc1cc(C=Cc2ccccc2)ccc1OCC(O)CCCc1cccnc1` (stereo not drawn), 110 to 111 °C. For `Cc1ccc(S(=O)(=O)OCC2CCN(c3nc4ccccc4s3)CC2)cc1` the value was 184 °C; for `CC1Cc2cc3c(cc2C(c2ccc([N+](=O)[O-])cc2)=NN1C#N)OCO3` (stereo not drawn), 172 to 176 °C. In turn, `Cc1cc2c(s1)C(C(=O)O)CC2` (stereo not drawn) gave a melting point of 105 to 107 °C. Consider `Cn1cnnc1C(O)(c1ccc(Cl)cc1)c1ccc2[nH]c(=O)cc(-c3cccc(Cl)c3)c2c1` (stereo not drawn), for which the melting point is more than 260 °C. As to `COc1ccc(-n2nc3c4c([nH]cc-3c2=O)CCCCCC4)cc1`, the melting point was in the range of 275 to 277 °C. `Cc1c(C(=O)O)oc2ccc(Br)c(OC(C)C)c12` came in with a melting point of 182 to 184 °C. For `Cc1[nH]cnc1CN1CCc2c(c3cccc(F)c3n2C)C1` the value was 188 to 190 °C. In turn, `C=CCc1oc2c(OC)cccc2c1CC(=O)OC` gave a melting point of 65 to 66 °C.

Regarding `O=C1CCN2C(=O)c3cccc(-n4c(=O)[nH]c5cnccc5c4=O)c3C2C1` (stereo not drawn), the melting point was 230 °C. For the compound `N#Cc1cc(O)ccc1Br`, the melting point fell in the range of 183 to 184 °C. The result for `CCOC(=O)c1nccn1CCCc1ccc(OCc2coc(/C=C/c3ccccc3)n2)cc1` reads 123 to 124 °C. For `CCc1cccc(C)c1CNc1nc(CO)cn2c(C)c(C)nc12`, the melting point came out at 166 °C. For `CC(C)(C#N)c1cc(CCl)cc(C(C)(C)C#N)c1`, the melting point was 119 to 121 °C. Consider `NS(=O)(=O)c1cnc(NC(=O)c2cnn3c(C(F)(F)F)cc(-c4ccc(C(F)(F)F)cc4)nc23)s1`, for which the melting point was determined as 309 °C. Turning to `Cc1cc(C)cc(COC(=O)C(Cc2c[nH]c3ccccc23)NC(=O)C2CCCCC2)c1` (stereo not drawn), the melting point fell in the range of 143 to 144 °C. `CC[C@H](Cn1cnnn1)n1cnc2cc3c(=O)n([C@H](C)Cn4ncnn4)nnc3cc2c1=O` yielded a melting point of 198 to 200 °C. For the compound `CS(=O)(=O)NC(=O)CCCCBr`, the melting point lay within 88 to 89 °C. In the case of `N#CSc1nc(Cl)ncc1Br`, the melting point is 166 to 170 °C. Turning to `CC(=O)OCCCCC#Cc1ccc2c3ccc4c5c(ccc(c6cccc1c62)c53)C(=O)N(c1c(C(C)C)cccc1C(C)C)C4=O`, the melting point was more than 300 °C. In turn, `COc1ccc(N2CCN(c3cc4c(c(C)c3C)OC(C)(C)C4)CC2)cc1` registered a melting point of 180 to 182 °C. For `CCc1cn(N=Cc2ccccc2)c(N)n1`, the melting point was 164 to 167 °C.

As for `O=C1OCC2Cc3ccccc3OC12` (stereo not drawn), the melting point was 107 to 111 °C. The result for `CCCOc1ccc(S(=O)(=O)N2CCN(CC)CC2)cc1C(=O)Nc1c(C(N)=O)nn(Cc2ccccn2)c1CC` reads 191 to 192 °C. The result for `Cc1cc(C2=NN=C(C#N)Cc3cc4c(cc32)OCO4)ccc1[N+](=O)[O-]` reads 211 to 214 °C; that for `CC1(C)CSc2c(-c3ccccc3)c(-c3ccc(Cl)cc3)cn2C1`, 147 to 148 °C. `COc1cccc(-c2cc(=O)cc(N3CCOCC3)o2)c1` returned a melting point of 115 to 117 °C. The compound `CCC(=O)Oc1c(OC)cc(C=CC(=O)Nc2cnc3c(C)cc(C)cc3c2-c2ccccc2Cl)cc1OC` came in with a melting point of 235 to 236 °C. Turning to `CC(=O)SCC(=O)NCCSC=CSCCNC(=O)CSC(C)=O`, the melting point came to 129 °C.

`Cc1ccc(-c2c(-c3ccc(S(C)(=O)=O)cc3)cnn(-c3ccc(F)c(F)c3)c2=O)cc1` came in with a melting point of 190 to 192 °C. For `CC(C)(C)NC(=O)Nc1nc2nc(N)ncc2cc1-c1c(Cl)ccc(Cl)c1Cl`, the melting point was in the range of 329 to 330 °C. The result for `CC(=O)Nc1ncsc1-c1ccccc1` reads 105 to 107 °C; that for `COc1ccccc1Oc1cccc(CC(=O)O)c1O`, 125 to 126 °C. In the case of `CC(=O)OCc1cc([N+](=O)[O-])ccc1C`, the melting point is 52 to 53.5 °C. On to `COC(=O)c1cccc2c(SC(F)(F)F)c(OC)ccc12`, for which the melting point fell in the range of 93 to 94 °C. `c1ccc(-c2ccc3[nH]nc(Nc4nccs4)c3c2)nc1` returned a melting point of 234 to 236 °C. Consider `COc1cc2c(cc1OC)CN(CCCCc1ccc(NC(=O)c3ccc4ccccc4c3)cc1)CC2`, for which the melting point lay within 165 to 167 °C. For the compound `Cc1nn(C)c2c(=O)n(C)c(=O)n(C)c12`, the melting point was in the range of 210 to 211 °C.

Compound `CCOC(=O)C=C(C)C=CC=C(C)C=Cc1c(C)cc(OC)c(C)c1Cl` returned a melting point of 106 to 107 °C. `CC(C)OC(=O)c1cc(-n2c(=O)[nH]c3c(c2=O)CCO3)c(F)cc1Cl` displayed a melting point of 213 to 215 °C. For `CCc1ccc2[nH]c(C(=O)OC)cc2c1` the value was 112 °C; for `N#Cc1ccc(-c2ccc(OCCCCBr)cc2)cc1`, 62.5 to 64 °C; for `O=S1(=O)N[C@@H](c2cccc(Br)c2)c2ccccc21`, 163 °C.

With `C#CC(C)(O)C1CCC2C3CCC4CC(F)CCC4(C)C3CCC21C` (stereo not drawn), the melting point fell in the range of 230 to 231 °C. On to `N#CN=C(Nc1cccnc1)NC1CC1`, for which the melting point lay in the range of 171 to 172 °C. For the compound `CC1(C)CCC(C)(C)c2cc(CC#Cc3ccc(C(N)=O)cc3)ccc21`, the melting point is 207 to 208 °C. Take `Cc1nn(-c2ccccn2)c2c1C(=O)CC(C)(C)C2S(=O)(=O)c1ccccc1` (stereo not drawn): the melting point lay in the range of 165 to 166 °C. For `CC1(C)CN2C(N)=NC(c3ccc(OC(F)(F)F)cc3)(c3cccc(-c4cccnc4F)c3)C2=N1` (stereo not drawn), the melting point is 89 to 97 °C.
